Patent publication EP0326134A1, “4-Amino-2,3-disubstituted-6,7-dihydro-5H-1-pyridine derivatives, process for their preparation and medicaments containing them” (NAUCHNO-ISSLEDOVATELSKY INSTITUT TEKHNOLOGII I BEZOPASNOSTI …, priority 1988, dated 1989)
Counter-ions that a name gives are not always drawn. Like-named read-outs stand apart in the source and are kept apart here.

How the values were obtained:
[1] = test system: Na -Durchlässigkeit der Membrane des Ranvier-Schnürringes; experiment: Na+ permeability of the node of Ranvier membrane, voltage clamp; parameters: species or system Frosches; details: node of Ranvier, frog sciatic nerve fibres, voltage clamp; concentration giving 50 % block of ion permeability; read-out: Blockierung der Na^+-Durchlässigkeit der Membrane Ic50 (Mol)
Source text: (§1) Untersucht wurden die Wirkmechanismen der erfindungsgemäßen Verbindungen: • 1. Die Wirkung auf Acetylcholinesterase menschlicher Erythrozyten auf spektrofotometrischem Wege. • 2. Die Wirkung auf die K - und Na -Durchlässigkeit der Membrane des Ranvier-Schnürringes (s. Fox T.M. et al. "Modification of ionic membrane currrents of Ranvier nodes by UV-radiation under voltage clamp conditions", Experientia, 27, 1289-1290 /1971/ und Arhom P. et al. "Local anesthetics: effects on permeability properties of nodal membrane in myelynated nerve fibres from xenopus". Acta physiol. Scand. 91, 11-21 /1974/) der Nervenfasern des Hüftnervs des Frosches unter Anwendung der Methode der Messung der Membranspannung (Voltage-clampmethode) (s. Derksen H.E. "Axon membrane voltage fluctuations", Acta Physiol., Pharmacol Neer, 13, 373-466 /1965/).
(§2) Alle erfindungsgemäßen Verbindungen sind Blocker für die K^+-Durchlässigkeit der Membrane analog dem Amyridin. Die Salze der bicyclischen Basen blockieren jedoch stärker die Na -Durchlässigkeit der Membrane, was sich mit ihren sedativen und analgetischen Eigenschaften in Verbindung bringen läßt.

[2] = test system: Uterus der Ratte; experiment: Contractile activity of smooth muscle: rat uterus; details: n = 9; for activity at 100 µM: Konzentration 1.10^-4 Mol, read-out: Serotonin 1.10^-6 (Mol): Amplitude, % bezogen auf die Kontrolle
Source text: (§3) In Versuchen an glattmpskulären Organen (Uterus, Samenleiter der Ratte und Krummdarm des Meerschweinchens) wurden die Wirkung der erfindungsgemäßen Verbindungen auf die kontraktile Aktivität der glatten Muskeln und ihre Reaktionen auf den Einfluß von Acetylcholin, Serotonin, Adrenalin und KCI als Agonisten untersucht. Mit Hilfe eines Schreibers wurden die Amplitude und die Dauer der Kontraktion der glatten Muskeln unter Verwendung eines Geräts vom Typ Mechanstron-untersucht.

[3] = test system: Samenleiter der Ratte; experiment: Contractile activity of smooth muscle: rat vas deferens; details: Rattus norvegicus, Samenleiter der Ratte, n = 9, read-out: Adrenalin 1.10^-6: Amplitude, % bezogen auf d.Kontrolle; for activity at 100 µM: Konzentration 1.10^-4 Mol
Source text: as §3

[4] = target: T1, Acetylcholinesterase menschlicher Erythrozyten (Homo sapiens, UniProt P22303); experiment: Acetylcholinesterase inhibition, spectrophotometric; format: biochemical; details: Acetylcholinesteraseinhibierung bei menschlichen Erythrozyten IK, (Mol), human erythrocyte enzyme
T1 construct: Acetylcholin-esteraseinhi-bierung bei menschlichen Erythrozyten; from tissue; host or cells: human erythrocytes
Source text: Untersucht wurden die Wirkmechanismen der erfindungsgemäßen Verbindungen: • 1. Die Wirkung auf Acetylcholinesterase menschlicher Erythrozyten auf spektrofotometrischem Wege. • 2.

[5] = Side effects and CNS/behaviour: tremor (TD50), sedative and m-cholinomimetic effects; format: in vivo; details: for selectivity ratio / TD50: in vivo; for selectivity ratio / Verhältnis TD50 zu ED50: ED50 = dose blocking the effect of Skopolamin in 50 % of the animals (passive avoidance, mice); for selectivity ratio: read-out: Verhältnis TD50 zu ED50; for TD50 / TD50 (Tremor): toxic dose causing tremor in 50 % of the animals
Source text: Von Interesse ist der Einfluß der erfindungsgemäßen Verbindungen auf das ZNS und das Verhalten der Tiere.

[6] = test system: durch Skopolamin hervorgerufene Amnesie; experiment: Dark avoidance assay (passive avoidance), scopolamine-induced amnesia; format: in vivo, Mäusen; details: for antiamnestische Wirkung: in words, compared with Amyridin; for Einfluß auf das Gedächtnis: Zahl der Tiere in %, bei denen die Skopolaminwirkung aufgehoben wurde: mice, compound s.c. 5 min before learning, Skopolamin i.p. 30 min before
[7] = test system: Nerven-Muskel-Präparat von Mäusen (n.peroneus-m.extensor digitorum longus); experiment: Neuromuscular transmission in isolated nerve-muscle preparation (EPP, minEPP); details: for Stimulierung der Nerven-Muskelübertragung, in % der Amplitude: EPP: EPP = Endplattenpotential
Summary of the method: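 Mouse peroneal nerve–extensor digitorum longus preparation, isolated and perfused with O2/CO2-gassed Lilly solution. EPPs and spontaneous minEPPs were recorded by magnetograph, then analysed by computer for frequency, amplitude and duration.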

[8] = test system: K -Durchlässigkeit der Membrane des Ranvier-Schnürringes; experiment: K+ permeability of the node of Ranvier membrane, voltage clamp; parameters: species or system Frosches; details: node of Ranvier, frog sciatic nerve fibres, voltage clamp; concentration giving 50 % block of ion permeability; read-out: Blockierung der K^+-Durchlässigkeit der Membrane Ic50 (Mol)
Source text: as §1, §2

[9] = Acute toxicity, single intraperitoneal injection, probit analysis (LD50); format: in vivo, Mäusen; details: mice, i.p.
Source text: Ihre akute Toxizität wurde an Mäusen (einmalige intraperitoneale Injektion) nach der Methode der Probit-Analyse nach Zichtfield, Wilcoxon, t949 untersucht. In Tabelle 2 sind die Parameter der akuten Toxizität (LDso) angegeben, die eine mäßige Toxizität der erfindungsgemäßen Verbindungen belegen.

[10] = Rattus norvegicus, Uterus der Ratte
[11] = mouse, in vivo, ip, read-out: LD50

T1 sequence (P22303 other isoform, or with tags, fused parts or gaps): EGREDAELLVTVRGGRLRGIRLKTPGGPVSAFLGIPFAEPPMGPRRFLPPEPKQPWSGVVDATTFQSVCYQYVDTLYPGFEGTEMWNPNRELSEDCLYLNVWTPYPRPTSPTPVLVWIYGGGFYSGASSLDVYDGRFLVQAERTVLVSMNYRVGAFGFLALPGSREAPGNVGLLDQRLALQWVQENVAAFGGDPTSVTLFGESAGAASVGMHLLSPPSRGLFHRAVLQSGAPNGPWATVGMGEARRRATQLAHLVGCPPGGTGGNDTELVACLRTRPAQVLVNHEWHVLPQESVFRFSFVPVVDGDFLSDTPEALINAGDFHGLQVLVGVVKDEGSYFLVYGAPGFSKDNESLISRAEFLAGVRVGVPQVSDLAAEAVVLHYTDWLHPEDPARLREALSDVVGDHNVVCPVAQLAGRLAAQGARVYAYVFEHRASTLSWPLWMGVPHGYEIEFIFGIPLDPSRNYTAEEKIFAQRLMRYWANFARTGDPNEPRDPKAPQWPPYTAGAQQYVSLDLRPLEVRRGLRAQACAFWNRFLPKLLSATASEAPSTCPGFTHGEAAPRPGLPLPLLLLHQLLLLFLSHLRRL

| Compound | IC50 [1] [µM] | activity at 100 µM [2, 10] [%] | activity at 100 µM [3] [%] | Ki [4] [µM] | selectivity ratio [5] | TD50 [5] [mg/kg] | antiamnestische Wirkung [6] | Einfluß auf das Gedächtnis: Zahl der Tiere in %, bei denen die Skopolaminwirkung aufgehoben wurde [6] [%] | Stimulierung der Nerven-Muskelübertragung, in % der Amplitude: EPP [7] [%] | Stimulierung der Nerven-Muskelübertragung, in % der Amplitude: minEPP [7] [%] | IC50 [8] [µM] | LD50 [9, 11] [mg/kg] | Verhältnis TD50 zu ED50 [5] | TD50 (Tremor) [5] [mg/kg] | LD50 [9] [mg/kg] | activity at 10 µM ([2]; Rattus norvegicus, Uterus der Ratte (as head prints), Konzentration 1.10^-5 Mol, ditto mark -"- repeats unverändert, read-out: Acetylcholin 1.10^-6 (Mol): Amplidude, % bezogen auf d. Kontrolle) [%] | activity at 10 µM ([3]; Konzentration 1.10^-5 Mol) [%] | Acetylcholin 1.10^-6 (Mol): Dauer, Min. ([2]; Uterus der Ratte (as head prints), Konzentration 1.10^-5 Mol) [Min.] | Serotonin 1.10^-6 (Mol): Dauer, Min. ([2]; Uterus der Ratte, Konzentration 1.10^-5 Mol) [Min.] |
| --- | --- | --- | --- | --- | --- | --- | --- | --- | --- | --- | --- | --- | --- | --- | --- | --- | --- | --- | --- |
| CNc1c(C)c(C)nc2c1CCC2 [Verbindung 19, 2,3-Dimethy)-4-methy)amino-6,7-dihydro-5H-1-pyrindinhydrat] | 2500 | 120 | 115 | 6.7 | 4 | 12 | antiamnestische Wirkung, welche die von Amyridin etwas übertraf | 70 | 28 | 56 | 1800 | 16 | – | – | – | – | – | – | – |
| CCNc1c(C)c(C)nc2c1CCC2 [Verbindung 20, 2,3-Dimethyl-4-ethylamino-6,7-dihydro-5H-1-pyrindin] | 2800 | 125 | 120 | 7 | 3.8 | 10 | antiamnestische Wirkung, welche die von Amyridin etwas übertraf | 65 | 30 | 58 | 2200 | 18 | – | – | – | – | – | – | – |
| CCc1c(C)nc2c(c1N)CCC2 [Verbindung 21, 2-Methyl-3-ethyl-4-amino-6,7-dihydro-5H-1-pyrindinhydrat] | 3200 | 118 | 115 | 7 | 3.8 | 10 | antiamnestische Wirkung, welche die von Amyridin etwas übertraf | 68 | 25 | 58 | 3500 | 30 | – | – | – | – | – | – | – |
| CCCc1c(C)nc2c(c1N)CCC2 [Verbindung 24] | 4200 | 119 | 120 | 7.5 | 3 | 10 | – | 68 | 25 | 54 | 4000 | 30 | – | – | – | – | – | – | – |
| CCc1nc2c(c(N)c1C)CCC2 [Verbindung 27, 2-Ethyl-3-methyl-4-amino-6,7-dihydro-5H-1-pyrindinhydrat] | 380 | 125 | 126 | 3.8 | 10 | 19 | antiamnestische Wirkung, welche die von Amyridin etwas übertraf | 60 | 23 | 45 | 150 | 30 | – | – | – | – | – | – | – |
| Cc1nc2c(c(N)c1-c1ccccc1)CCC2 [Verbindung 33] | 5500 | 140 | 128 | 48 | – | – | – | 55 | 20 | 42 | 6500 | – | 2,4 | 15 | 25 | – | – | – | – |
| Nc1c2c(nc3c1CCC3)CCC2 [Verbindung 36, 8-Amino-1,2,3,5,6,7-hexahydro-1-cyclopenta[b]pyrindin-hydrochlorid] | 5200 | – | – | 0.11 | 7.5 | 15 | – | 65 | 20 | 60 | 420 | 36 | – | – | – | 140 | 160 | – | – |
| Nc1c2c(nc3c1CCC3)CCC2 [Verbindung 37, 8-Amino-1,2,3,5,6,7-hexahydro-1-cyclopenta[b]pyrindinperchlorat] | 4200 | – | – | 0.15 | – | – | – | 68 | 30 | 66 | 450 | – | 8,2 | 18 | 38 | – | – | – | – |
| Nc1c2c(nc3c1CCC3)CCCCC2 [Verbindung 39] | 5000 | – | – | 0.56 | – | – | – | 72 | 25 | 60 | 480 | – | 7,2 | 18 | 50 | – | – | 22±0.6 | 28±0.5 |
